Measurements published in paper PMC4128046, “Effect of a toggle switch mutation in TM6 of the human adenosine A3 receptor on Gi protein-dependent signalling and Gi-independent receptor internalization” (British Journal of Pharmacology, 2014).

Columns and labels:
A3-YFP = target: T1, A3-YFP (Homo sapiens, UniProt P0DMS8); assay: Confocal imaging of receptor internalization and membrane YFP fluorescence, A3-YFP; format: cell-based; details: A3-YFP cells, 10 μM agonist
T1 construct: cDNA encoding the full length human A3 receptor; expressed in transfected cells
T1 sequence (P0DMS8 1-318): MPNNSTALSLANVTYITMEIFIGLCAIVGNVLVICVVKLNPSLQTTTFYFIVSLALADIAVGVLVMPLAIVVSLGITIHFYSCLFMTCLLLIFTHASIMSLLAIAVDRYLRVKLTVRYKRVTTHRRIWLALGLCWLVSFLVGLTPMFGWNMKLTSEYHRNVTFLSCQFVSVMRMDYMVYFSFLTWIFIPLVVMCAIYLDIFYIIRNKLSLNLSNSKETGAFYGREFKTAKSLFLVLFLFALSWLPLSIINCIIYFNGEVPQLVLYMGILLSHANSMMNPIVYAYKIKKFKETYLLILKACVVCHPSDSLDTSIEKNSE
Method: Live-cell BiFC imaging was performed on A3-vYc/β-arrestin2-vYnL and A3 W243F-vYc/β-arrestin2-vYnL cells grown in Nunc Labtek 8-well plates, and images obtained using a Zeiss 710 confocal microscope (Carl Zeiss GmbH, Jena, Germany) fitted with a 63× plan-Apochromat NA1.4 Ph3 oil-immersion objective. Live-cell imaging analysis was performed on A3-YFP or A3 W243F-YFP CRE-SPAP cells and transiently expressed SNAP-A3 or SNAP-A3 W243F grown in Nunc Labtek 8-well plates, and images obtained using a Zeiss LSM5 Exciter confocal microscope (Carl Zeiss GmbH) fitted with a 63× plan-Apochromat NA1.4 DIC oil-immersion objective. For both YFP, BiFC and BG-AF488 label, a 488 nm argon laser was used to excite the fluorophore and emission was detected using a BP505-530 filter. Cells expressing the SNAP-tagged receptors were labelled with 1 μM SNAP-surface BG-AF488 (New England Biolabs) in DMEM/F12 medium for 30 min at 37°C/5% CO2. Before all imaging experiments, normal growth medium or medium containing BG-AF488 was removed and cells were washed twice in HEPES-buffered saline solution (HBSS; 25 mM HEPES, 10 mM glucose, 146 mM NaCl, 5 mM KCl, 1 mM MgSO4, 2 mM sodium pyruvate, 1.3 mM CaCl2) and fresh HBSS was added for analysis. […] Images of A3-YFP and A3 W243F-YFP cells were taken with same pinhole diameter, laser power, gain and offset to allow comparison of YFP fluorescence. To obtain fluorescence intensity values, a region of interest was drawn around the plasma membrane of 10 cells per image in Zeiss AIM 4.2 software (Carl Zeiss GmbH).

SNAP-A3 = target: T2, SNAP-A3 (Homo sapiens, UniProt P0DMS8); assay: Confocal imaging of SNAP-tagged receptor internalization, SNAP-A3; format: cell-based; details: SNAP-A3 transiently expressed in CHO CRE-SPAP cells, BG-AF488 label, 10 μM agonist
T2 construct: the methionine start signal was removed from cDNA encoding the full length A3; expressed in transfected cells; host or cells: CHO CRE-SPAP, transient (Fugene HD)
T2 sequence (P0DMS8 2-318 limits assumed): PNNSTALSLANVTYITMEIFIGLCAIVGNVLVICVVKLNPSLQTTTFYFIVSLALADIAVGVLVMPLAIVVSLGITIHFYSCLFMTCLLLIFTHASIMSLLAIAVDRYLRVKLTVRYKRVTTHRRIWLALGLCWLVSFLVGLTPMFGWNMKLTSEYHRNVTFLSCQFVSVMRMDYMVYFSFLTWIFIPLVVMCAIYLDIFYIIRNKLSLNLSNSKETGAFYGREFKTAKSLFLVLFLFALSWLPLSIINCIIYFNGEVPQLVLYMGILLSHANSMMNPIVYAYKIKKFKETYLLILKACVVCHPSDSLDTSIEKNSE
Method: CHO-K1 cells stably expressing a cAMP response element-secreted placental alkaline phosphatase (CRE-SPAP) reporter gene (CHO CRE-SPAP) under hygromycin selectivity and CHO-K1 cells stably expressing β-arrestin2-vYnL (CHO β-arrestin2-vYnL, a gift from Dr. N. Holliday, University of Nottingham, Nottingham, UK) were maintained in DMEM/F12 medium containing 10% FCS and 2 mM L-glutamine at 37°C in a humidified atmosphere of air/CO2 (19:1). […] Cell lines were initially screened for YFP or bimolecular fluorescence complementation (BiFC) fluorescence and CRE-SPAP cells lines were subsequently tested in the CRE-SPAP gene transcription assay. […]
Live-cell BiFC imaging was performed on A3-vYc/β-arrestin2-vYnL and A3 W243F-vYc/β-arrestin2-vYnL cells grown in Nunc Labtek 8-well plates, and images obtained using a Zeiss 710 confocal microscope (Carl Zeiss GmbH, Jena, Germany) fitted with a 63× plan-Apochromat NA1.4 Ph3 oil-immersion objective. […] For both YFP, BiFC and BG-AF488 label, a 488 nm argon laser was used to excite the fluorophore and emission was detected using a BP505-530 filter. […] Images of A3-YFP and A3 W243F-YFP cells were taken with same pinhole diameter, laser power, gain and offset to allow comparison of YFP fluorescence. To obtain fluorescence intensity values, a region of interest was drawn around the plasma membrane of 10 cells per image in Zeiss AIM 4.2 software (Carl Zeiss GmbH).

SMILES	internalization of the receptor seen in confocal images (A3-YFP)	reduction in membrane fluorescence (A3-YFP)	internalization of SNAP-tagged receptor seen in confocal images (SNAP-A3)
CCCCC#Cc1nc(NC)c2ncn([C@@H]3O[C@H](CO)[C@@H](O)[C@H]3O)c2n1 [HEMADO, 2-(1-hexynyl)-N-methyladenosine]	substantial internalization	50%	clear punctate granules
CCNC(=O)[C@H]1O[C@@H](n2cnc3c(N)ncnc32)[C@H](O)[C@@H]1O [NECA, 5-(N-ethylcarboxamido)adenosine]	rapid internalization	50%	clear punctate granules
